Values of other authors as cited in paper PMC8847371 (Nature Communications, 2022).

Experiments:
SARS-CoV-2 = settings: cited from earlier work
SARS-CoV-2 VoC = settings: cited from earlier work
COVID-19 [1] = tested on: COVID-19; design: method as in MOVe-OUT trial (NCT04575597); settings: phase 3, high-risk patients with mild to moderate COVID-19; ref MOVe-OUT trial (NCT04575597); cited from earlier work
COVID-19 [2] = tested on: COVID-19; design: method as in recent press release; settings: early administration, high risk patients with mild to moderate symptoms; ref recent press release; cited from earlier work

Structure (SMILES) | efficacy in the SARS-CoV-2 hamster infection model (SARS-CoV-2) | in vitro potency against the four VOC (SARS-CoV-2 VoC) | risk of hospitalization or death (COVID-19 [1]) | reduction of likelihood of hospitalization (COVID-19 [2])
CC(C)C(=O)OC[C@H]1O[C@@H](n2ccc(NO)nc2=O)[C@H](O)[C@@H]1O [Molnupiravir] | effective | equipotent | significant reduction | 
CCC(CC)COC(=O)[C@H](C)N[P@](=O)(OC[C@H]1O[C@@](C#N)(c2ccc3c(N)ncnn23)[C@H](O)[C@@H]1O)Oc1ccccc1 [Veklury] |  |  |  | 87%
